Calls of active or inactive are those of the source. For most assays here, no stated cut-off is given here; in the data, actives have a measured Kd and inactives only a lower limit.
What follows are molecules tested against T1, Breakpoint cluster region protein (Homo sapiens, UniProt P11274).
T1 sequence (P11274 whole entry): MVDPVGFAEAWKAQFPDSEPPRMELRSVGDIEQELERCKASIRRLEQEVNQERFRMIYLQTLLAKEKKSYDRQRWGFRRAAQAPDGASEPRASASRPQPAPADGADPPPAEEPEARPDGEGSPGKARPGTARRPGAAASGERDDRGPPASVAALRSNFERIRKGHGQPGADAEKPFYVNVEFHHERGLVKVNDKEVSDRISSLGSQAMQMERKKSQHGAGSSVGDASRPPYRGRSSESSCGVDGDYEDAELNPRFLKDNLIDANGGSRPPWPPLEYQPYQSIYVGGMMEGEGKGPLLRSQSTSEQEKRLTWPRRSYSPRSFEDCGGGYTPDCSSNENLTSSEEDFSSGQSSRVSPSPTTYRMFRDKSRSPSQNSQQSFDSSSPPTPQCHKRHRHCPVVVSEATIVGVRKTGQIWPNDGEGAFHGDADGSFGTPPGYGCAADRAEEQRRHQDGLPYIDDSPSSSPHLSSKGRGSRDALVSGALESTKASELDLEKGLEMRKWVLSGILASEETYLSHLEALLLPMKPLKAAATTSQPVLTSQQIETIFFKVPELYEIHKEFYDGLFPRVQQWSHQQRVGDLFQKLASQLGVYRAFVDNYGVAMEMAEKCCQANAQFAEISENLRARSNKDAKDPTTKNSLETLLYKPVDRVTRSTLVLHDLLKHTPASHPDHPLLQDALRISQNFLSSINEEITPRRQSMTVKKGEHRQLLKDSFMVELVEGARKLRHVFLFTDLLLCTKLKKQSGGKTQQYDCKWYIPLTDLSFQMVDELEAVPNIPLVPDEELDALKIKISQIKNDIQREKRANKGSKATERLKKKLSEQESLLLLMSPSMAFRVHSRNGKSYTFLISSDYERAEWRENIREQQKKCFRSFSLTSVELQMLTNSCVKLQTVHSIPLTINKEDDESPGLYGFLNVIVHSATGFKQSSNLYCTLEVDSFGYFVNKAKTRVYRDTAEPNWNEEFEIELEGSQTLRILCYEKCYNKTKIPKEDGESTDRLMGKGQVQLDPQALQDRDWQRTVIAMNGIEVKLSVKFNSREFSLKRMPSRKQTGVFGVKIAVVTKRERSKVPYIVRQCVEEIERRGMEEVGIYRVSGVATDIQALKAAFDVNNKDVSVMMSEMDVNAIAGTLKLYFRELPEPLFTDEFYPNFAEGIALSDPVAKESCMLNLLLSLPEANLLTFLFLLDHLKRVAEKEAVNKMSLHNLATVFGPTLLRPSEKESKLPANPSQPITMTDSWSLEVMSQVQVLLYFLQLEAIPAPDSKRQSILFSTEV

SMILES | Kd
N[C@@H]1CCCN(c2c(/C=C3\SC(=O)NC3=O)cccc2-c2ccccc2)C1 | > 30 µM (inactive)
Cc1ccc(S(=O)(=O)Nc2nc3ccccc3nc2Nc2ccc3nsnc3c2)cc1 | > 30 µM (inactive)
CN1CC[C@@H](c2c(O)cc(O)c3c(=O)cc(-c4ccccc4Cl)oc23)[C@@H]1CO | > 30 µM (inactive)
Cc1cc(-c2cc(O)ccc2Cl)cc2nnc(Nc3ccc(OCCN4CCCC4)cc3)nc12 | 0.001 µM (active)
CCN1CCN(Cc2ccc(-c3cc4c(N[C@H](C)c5ccccc5)ncnc4[nH]3)cc2)CC1 [AEE-788] | 0.495 µM (active)
COc1cc(N2CCC(N3CCN(C)CC3)CC2)ccc1Nc1ncnc(Nc2ccccc2S(=O)(=O)C(C)C)n1 [ASP-3026] | > 30 µM (inactive)

Each molecule was assayed against Dual specificity mitogen-activated protein kinase kinase 2 (Homo sapiens, UniProt P36507).
Chain of Dual specificity mitogen-activated protein kinase kinase 2 (P36507 whole entry): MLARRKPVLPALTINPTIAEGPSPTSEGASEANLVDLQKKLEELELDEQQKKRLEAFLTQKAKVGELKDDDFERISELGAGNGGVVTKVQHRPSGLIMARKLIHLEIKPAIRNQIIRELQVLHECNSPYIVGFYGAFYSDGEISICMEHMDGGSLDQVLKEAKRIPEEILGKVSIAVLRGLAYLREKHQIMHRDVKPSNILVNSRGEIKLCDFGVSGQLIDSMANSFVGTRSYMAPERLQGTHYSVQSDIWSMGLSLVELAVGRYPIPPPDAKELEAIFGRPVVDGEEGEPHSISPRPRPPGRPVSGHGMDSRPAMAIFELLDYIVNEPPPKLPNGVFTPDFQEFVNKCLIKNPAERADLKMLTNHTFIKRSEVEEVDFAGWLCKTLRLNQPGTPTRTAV

SMILES | Kd
N[C@@H]1CCCN(c2c(/C=C3\SC(=O)NC3=O)cccc2-c2ccccc2)C1 | > 30 µM (inactive)
Cc1ccc(S(=O)(=O)Nc2nc3ccccc3nc2Nc2ccc3nsnc3c2)cc1 | > 30 µM (inactive)
CN1CC[C@@H](c2c(O)cc(O)c3c(=O)cc(-c4ccccc4Cl)oc23)[C@@H]1CO | > 30 µM (inactive)
Cc1cc(-c2cc(O)ccc2Cl)cc2nnc(Nc3ccc(OCCN4CCCC4)cc3)nc12 | > 30 µM (inactive)
CCN1CCN(Cc2ccc(-c3cc4c(N[C@H](C)c5ccccc5)ncnc4[nH]3)cc2)CC1 [AEE-788] | > 30 µM (inactive)
COc1cc(N2CCC(N3CCN(C)CC3)CC2)ccc1Nc1ncnc(Nc2ccccc2S(=O)(=O)C(C)C)n1 [ASP-3026] | > 30 µM (inactive)

These molecules were tested against T2, Mitogen-activated protein kinase 15 (Homo sapiens, UniProt Q8TD08).
T2 sequence (Q8TD08 whole entry): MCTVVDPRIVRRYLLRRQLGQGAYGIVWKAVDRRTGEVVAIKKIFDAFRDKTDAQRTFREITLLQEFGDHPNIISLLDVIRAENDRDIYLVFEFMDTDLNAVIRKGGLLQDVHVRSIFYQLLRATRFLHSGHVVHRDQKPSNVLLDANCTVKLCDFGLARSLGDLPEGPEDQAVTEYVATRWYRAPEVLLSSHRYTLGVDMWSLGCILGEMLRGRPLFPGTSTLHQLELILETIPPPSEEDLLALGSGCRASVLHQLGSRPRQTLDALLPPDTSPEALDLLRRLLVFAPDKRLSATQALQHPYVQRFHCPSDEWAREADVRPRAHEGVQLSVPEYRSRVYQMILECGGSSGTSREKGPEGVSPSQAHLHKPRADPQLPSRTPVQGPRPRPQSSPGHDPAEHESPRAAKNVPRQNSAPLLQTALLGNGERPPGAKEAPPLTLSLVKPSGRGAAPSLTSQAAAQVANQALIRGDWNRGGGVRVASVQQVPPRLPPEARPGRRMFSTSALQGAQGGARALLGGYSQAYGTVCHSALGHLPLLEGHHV

SMILES | Kd
N[C@@H]1CCCN(c2c(/C=C3\SC(=O)NC3=O)cccc2-c2ccccc2)C1 | > 30 µM (inactive)
Cc1ccc(S(=O)(=O)Nc2nc3ccccc3nc2Nc2ccc3nsnc3c2)cc1 | > 30 µM (inactive)
CN1CC[C@@H](c2c(O)cc(O)c3c(=O)cc(-c4ccccc4Cl)oc23)[C@@H]1CO | > 30 µM (inactive)
Cc1cc(-c2cc(O)ccc2Cl)cc2nnc(Nc3ccc(OCCN4CCCC4)cc3)nc12 | > 30 µM (inactive)
CCN1CCN(Cc2ccc(-c3cc4c(N[C@H](C)c5ccccc5)ncnc4[nH]3)cc2)CC1 [AEE-788] | > 30 µM (inactive)
COc1cc(N2CCC(N3CCN(C)CC3)CC2)ccc1Nc1ncnc(Nc2ccccc2S(=O)(=O)C(C)C)n1 [ASP-3026] | > 30 µM (inactive)

These molecules were tested against Serine/threonine-protein kinase pim-1 (Homo sapiens, UniProt P11309).
Chain of Serine/threonine-protein kinase pim-1 (P11309 whole entry): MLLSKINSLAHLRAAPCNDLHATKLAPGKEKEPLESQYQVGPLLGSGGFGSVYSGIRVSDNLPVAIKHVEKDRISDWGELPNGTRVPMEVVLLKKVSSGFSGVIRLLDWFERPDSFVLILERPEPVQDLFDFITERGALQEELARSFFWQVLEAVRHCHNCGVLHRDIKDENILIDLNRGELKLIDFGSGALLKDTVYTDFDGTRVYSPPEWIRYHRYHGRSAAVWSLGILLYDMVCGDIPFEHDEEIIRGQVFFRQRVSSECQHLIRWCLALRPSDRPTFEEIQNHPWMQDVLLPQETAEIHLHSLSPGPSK

SMILES | Kd
Cc1ccc(S(=O)(=O)Nc2nc3ccccc3nc2Nc2ccc3nsnc3c2)cc1 | > 30 µM (inactive)
CN1CC[C@@H](c2c(O)cc(O)c3c(=O)cc(-c4ccccc4Cl)oc23)[C@@H]1CO | > 30 µM (inactive)
Cc1cc(-c2cc(O)ccc2Cl)cc2nnc(Nc3ccc(OCCN4CCCC4)cc3)nc12 | > 30 µM (inactive)
CCN1CCN(Cc2ccc(-c3cc4c(N[C@H](C)c5ccccc5)ncnc4[nH]3)cc2)CC1 [AEE-788] | > 30 µM (inactive)
COc1cc(N2CCC(N3CCN(C)CC3)CC2)ccc1Nc1ncnc(Nc2ccccc2S(=O)(=O)C(C)C)n1 [ASP-3026] | > 30 µM (inactive)

Each molecule was assayed against 5'-AMP-activated protein kinase catalytic subunit alpha-1 (Homo sapiens, UniProt Q13131).
Chain of 5'-AMP-activated protein kinase catalytic subunit alpha-1 (Q13131 whole entry): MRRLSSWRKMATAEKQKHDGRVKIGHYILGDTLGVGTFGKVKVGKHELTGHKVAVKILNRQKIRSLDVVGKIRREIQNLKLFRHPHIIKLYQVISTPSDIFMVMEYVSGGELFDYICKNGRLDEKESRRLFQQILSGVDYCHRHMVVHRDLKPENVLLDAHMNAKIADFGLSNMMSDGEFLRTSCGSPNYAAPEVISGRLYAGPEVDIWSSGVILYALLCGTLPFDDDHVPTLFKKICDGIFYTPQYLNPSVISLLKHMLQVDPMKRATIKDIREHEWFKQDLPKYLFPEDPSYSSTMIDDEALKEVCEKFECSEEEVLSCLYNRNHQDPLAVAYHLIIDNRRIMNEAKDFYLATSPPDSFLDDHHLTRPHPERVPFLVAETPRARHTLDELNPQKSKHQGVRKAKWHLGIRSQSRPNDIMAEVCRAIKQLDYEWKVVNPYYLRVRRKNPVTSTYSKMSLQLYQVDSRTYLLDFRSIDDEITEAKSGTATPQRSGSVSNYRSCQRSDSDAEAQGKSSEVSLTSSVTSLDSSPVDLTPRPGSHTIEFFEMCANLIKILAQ

SMILES | Kd
N[C@@H]1CCCN(c2c(/C=C3\SC(=O)NC3=O)cccc2-c2ccccc2)C1 | > 30 µM (inactive)
Cc1ccc(S(=O)(=O)Nc2nc3ccccc3nc2Nc2ccc3nsnc3c2)cc1 | > 30 µM (inactive)
CN1CC[C@@H](c2c(O)cc(O)c3c(=O)cc(-c4ccccc4Cl)oc23)[C@@H]1CO | > 30 µM (inactive)
Cc1cc(-c2cc(O)ccc2Cl)cc2nnc(Nc3ccc(OCCN4CCCC4)cc3)nc12 | > 30 µM (inactive)
CCN1CCN(Cc2ccc(-c3cc4c(N[C@H](C)c5ccccc5)ncnc4[nH]3)cc2)CC1 [AEE-788] | > 30 µM (inactive)
COc1cc(N2CCC(N3CCN(C)CC3)CC2)ccc1Nc1ncnc(Nc2ccccc2S(=O)(=O)C(C)C)n1 [ASP-3026] | > 30 µM (inactive)

What follows are molecules tested against Protein-tyrosine kinase 2-beta (Homo sapiens, UniProt Q14289).
Chain of Protein-tyrosine kinase 2-beta (Q14289 whole entry): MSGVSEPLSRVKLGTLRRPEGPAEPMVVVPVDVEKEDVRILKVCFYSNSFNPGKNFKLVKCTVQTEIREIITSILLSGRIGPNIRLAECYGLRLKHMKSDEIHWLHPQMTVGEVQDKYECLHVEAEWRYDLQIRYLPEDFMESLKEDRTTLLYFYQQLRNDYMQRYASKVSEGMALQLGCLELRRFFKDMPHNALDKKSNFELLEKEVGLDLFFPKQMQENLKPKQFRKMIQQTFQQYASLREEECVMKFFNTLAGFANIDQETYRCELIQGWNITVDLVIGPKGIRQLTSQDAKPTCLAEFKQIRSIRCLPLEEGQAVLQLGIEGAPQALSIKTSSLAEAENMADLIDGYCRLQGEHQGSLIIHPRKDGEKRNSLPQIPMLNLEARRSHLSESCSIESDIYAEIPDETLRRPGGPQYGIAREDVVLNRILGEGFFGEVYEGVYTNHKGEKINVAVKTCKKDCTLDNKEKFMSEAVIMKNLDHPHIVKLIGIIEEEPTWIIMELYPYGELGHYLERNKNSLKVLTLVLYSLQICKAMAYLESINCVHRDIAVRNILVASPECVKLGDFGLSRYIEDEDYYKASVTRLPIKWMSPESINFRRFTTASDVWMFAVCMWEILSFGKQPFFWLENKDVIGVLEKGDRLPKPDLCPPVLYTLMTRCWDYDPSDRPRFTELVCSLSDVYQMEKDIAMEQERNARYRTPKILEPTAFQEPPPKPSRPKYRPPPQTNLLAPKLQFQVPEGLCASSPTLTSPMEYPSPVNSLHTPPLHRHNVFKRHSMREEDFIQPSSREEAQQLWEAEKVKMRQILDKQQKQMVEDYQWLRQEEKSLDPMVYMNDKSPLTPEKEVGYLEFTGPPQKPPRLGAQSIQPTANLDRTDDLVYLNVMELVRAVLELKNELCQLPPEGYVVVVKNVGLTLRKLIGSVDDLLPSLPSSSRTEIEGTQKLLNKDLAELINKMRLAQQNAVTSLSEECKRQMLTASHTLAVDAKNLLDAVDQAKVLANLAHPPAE

SMILES | Kd
N[C@@H]1CCCN(c2c(/C=C3\SC(=O)NC3=O)cccc2-c2ccccc2)C1 | > 30 µM (inactive)
Cc1ccc(S(=O)(=O)Nc2nc3ccccc3nc2Nc2ccc3nsnc3c2)cc1 | > 30 µM (inactive)
CN1CC[C@@H](c2c(O)cc(O)c3c(=O)cc(-c4ccccc4Cl)oc23)[C@@H]1CO | > 30 µM (inactive)
Cc1cc(-c2cc(O)ccc2Cl)cc2nnc(Nc3ccc(OCCN4CCCC4)cc3)nc12 | > 30 µM (inactive)
CCN1CCN(Cc2ccc(-c3cc4c(N[C@H](C)c5ccccc5)ncnc4[nH]3)cc2)CC1 [AEE-788] | > 30 µM (inactive)
COc1cc(N2CCC(N3CCN(C)CC3)CC2)ccc1Nc1ncnc(Nc2ccccc2S(=O)(=O)C(C)C)n1 [ASP-3026] | 0.273 µM (active)

These molecules were tested against Activated CDC42 kinase 1 (Homo sapiens, UniProt Q07912).
Chain of Activated CDC42 kinase 1 (Q07912 whole entry): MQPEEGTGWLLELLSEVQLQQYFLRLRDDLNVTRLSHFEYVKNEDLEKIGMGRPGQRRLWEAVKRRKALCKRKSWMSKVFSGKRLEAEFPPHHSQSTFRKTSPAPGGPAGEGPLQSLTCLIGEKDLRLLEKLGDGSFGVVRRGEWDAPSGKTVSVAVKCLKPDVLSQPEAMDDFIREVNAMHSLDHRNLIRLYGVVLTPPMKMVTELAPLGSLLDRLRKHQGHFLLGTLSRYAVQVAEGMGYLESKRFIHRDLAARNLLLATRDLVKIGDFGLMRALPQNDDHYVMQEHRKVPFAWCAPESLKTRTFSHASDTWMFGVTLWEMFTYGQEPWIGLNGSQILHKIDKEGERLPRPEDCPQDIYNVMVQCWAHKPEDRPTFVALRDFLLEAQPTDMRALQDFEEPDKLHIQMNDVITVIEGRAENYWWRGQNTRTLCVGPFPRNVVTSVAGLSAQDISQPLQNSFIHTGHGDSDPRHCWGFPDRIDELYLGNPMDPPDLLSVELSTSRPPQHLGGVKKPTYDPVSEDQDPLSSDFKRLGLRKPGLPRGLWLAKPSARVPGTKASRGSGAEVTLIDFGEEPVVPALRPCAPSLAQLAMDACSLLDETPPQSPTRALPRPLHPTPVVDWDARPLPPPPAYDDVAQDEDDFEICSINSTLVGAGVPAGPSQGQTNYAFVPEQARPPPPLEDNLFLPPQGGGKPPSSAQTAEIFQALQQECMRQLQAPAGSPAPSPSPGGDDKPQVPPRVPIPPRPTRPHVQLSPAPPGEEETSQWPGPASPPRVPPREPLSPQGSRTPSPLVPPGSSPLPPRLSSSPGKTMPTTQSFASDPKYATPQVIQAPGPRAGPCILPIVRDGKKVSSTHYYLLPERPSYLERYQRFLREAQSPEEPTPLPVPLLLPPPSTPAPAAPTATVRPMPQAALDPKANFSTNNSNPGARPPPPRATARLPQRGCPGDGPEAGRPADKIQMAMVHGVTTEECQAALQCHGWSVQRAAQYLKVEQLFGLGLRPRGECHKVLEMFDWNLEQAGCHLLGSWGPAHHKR

SMILES | Kd
N[C@@H]1CCCN(c2c(/C=C3\SC(=O)NC3=O)cccc2-c2ccccc2)C1 | > 30 µM (inactive)
Cc1ccc(S(=O)(=O)Nc2nc3ccccc3nc2Nc2ccc3nsnc3c2)cc1 | > 30 µM (inactive)
CN1CC[C@@H](c2c(O)cc(O)c3c(=O)cc(-c4ccccc4Cl)oc23)[C@@H]1CO | > 30 µM (inactive)
Cc1cc(-c2cc(O)ccc2Cl)cc2nnc(Nc3ccc(OCCN4CCCC4)cc3)nc12 | > 30 µM (inactive)
CCN1CCN(Cc2ccc(-c3cc4c(N[C@H](C)c5ccccc5)ncnc4[nH]3)cc2)CC1 [AEE-788] | 1.01 µM (active)
COc1cc(N2CCC(N3CCN(C)CC3)CC2)ccc1Nc1ncnc(Nc2ccccc2S(=O)(=O)C(C)C)n1 [ASP-3026] | 0.005 µM (active)
